# Columns and labels:
# [1] = microbe, parasite or virus in culture; conditions: Mycobacterium tuberculosis, 72 h, read-out: pIC50 (converted)
# [2] = microbe, parasite or virus in culture; conditions: Mycobacterium tuberculosis, 96 h, read-out: pIC50 (converted)
SMILES,IC50 [1] [µM],IC50 [2] [µM]
O=C(Oc1nsnc1N1CCCCC1)N1CCOCC1,168,432
O=C(c1ccc(Cl)o1)N1CCN(Cc2ccco2)CC1,102,69.4
CCC(CO)NC(=O)C1(c2ccc(F)cc2F)CCC1 (stereo not drawn),313,> 501
NCCCc1nc(-c2ccc(F)cc2)no1,163,186
Cc1ccc(NCc2ncc[nH]2)c(F)c1,216,> 501
O=S(=O)(NC1CCCC1)c1cncc(Cl)c1,226,> 501
O=C(Nc1cccc(-n2cccn2)c1)N1CCSCC1,> 501,> 501
CN(CC(C)(CO)CO)c1ncc(Cl)cc1Cl,122,301
CCOCC(=O)NCC(O)c1cccc(C(F)(F)F)c1 (stereo not drawn),> 501,> 501
CCC1c2ccsc2CCN1C(=O)c1ccc(CN)o1 (stereo not drawn),167,370
N#Cc1cccc(OCCn2cnc(C#N)n2)c1,> 501,304
CC(C)Cc1cc(C(=O)N(C)Cc2cnccn2)on1,> 501,> 501
CC(c1nc(COc2ccc(F)cc2)no1)S(C)(=O)=O (stereo not drawn),230,157
COCC(=O)NC1CCc2ccccc21 (stereo not drawn),114,124
OC(Cn1nnc(-c2ccsc2)n1)CC(F)(F)F (stereo not drawn),56.5,39.2
O=C(NCc1ccc2c(c1)OCCCO2)c1cscn1,107,111
COc1ccnc(N2CCCNCC2)n1,229,> 501
OC(CN1CCn2ccnc2C1)c1ccc(F)cc1 (stereo not drawn),173,> 501
CSc1cncc(NCCC(=O)N2CCCC2)n1,336,> 501
CC(C)(C)c1cnc(CN2CCOCC2C(N)=O)o1 (stereo not drawn),158,> 501
COCCN1CCCN(C(=O)c2cc(Cl)c[nH]2)CC1,195,> 501
COc1cccc(C(=O)NCc2ccoc2C)n1,364,> 501
CCOc1cc(Cl)ccc1CN,159,121
O=C(CC1C=CCC1)N1CCN(c2ccccn2)CC1 (stereo not drawn),167,407
CC(C)N(C)S(=O)(=O)NCCCN(C)c1ccccc1,193,216
CNC(=O)c1sc(NC2CC2)nc1C,72.7,88.1
CC(=O)N1CCC[C@H]1C(=O)NCCc1csc(C)n1,> 501,> 501

SMILES,IC50 [1] [µM],IC50 [2] [µM]
CSCC(CCO)Nc1ncccc1C(F)(F)F (stereo not drawn),253,> 501
O=C(Nc1ccc(F)c(Cl)c1)N1CCC(O)C1 (stereo not drawn),212,314
CC(C)CC(C)Oc1cc(CNS(N)(=O)=O)ccn1 (stereo not drawn),116,372
CC(C)CCC(=O)N1CCN(CC(O)C(F)(F)F)CC1 (stereo not drawn),42,30.2
NCCc1cnn(-c2ccccc2)c1,230,250
Cn1nccc1C(=O)NC1CCc2ccccc2OC1 (stereo not drawn),> 501,> 501
COCCNC(=O)Nc1ccc(OC(F)F)c(F)c1,273,253
O=C(NCCCOC(F)F)NCc1ccc(Br)o1,135,125
N[C@H]1CCN(S(=O)(=O)c2ccc(F)c(C(F)(F)F)c2)C1,100,171
COC1CCN(C(=O)Cc2ccc(N(C)C)cc2)C1 (stereo not drawn),183,122
COCCN(Cc1cccs1)C(=O)CC1CCNC1 (stereo not drawn),159,329
COCCNCC(=O)Nc1cccc(CSC)c1,374,> 501
CN(C)C1(CN)Cc2ccccc2C1,81.5,127
O=C(CNC1CC1)NC[C@H]1CCc2ccccc2O1,130,156
NCC(O)c1ccc(Cl)c(F)c1 (stereo not drawn),252,> 501
NCC(CO)Cc1cc(F)cc(Br)c1 (stereo not drawn),305,264
CCOc1ccc(C(C)=O)cc1CN1CCCC1,59.8,111
CC(C)CNc1cccc(-n2cnnn2)c1,274,247
CC1CCCN(S(=O)(=O)N(C)Cc2ccco2)C1 (stereo not drawn),> 501,> 501
CNC(=O)CN(C)C(=O)CCc1ccc(Br)cc1F,108,166
CC(C)C(O)CCNC(=O)Cc1cccc(O)c1 (stereo not drawn),430,> 501
CCS(=O)(=O)NCCNS(=O)(=O)c1ccc(C)cc1Cl,> 501,> 501
Cc1cc(NC(C)CN2CCOCC2)ncc1Br (stereo not drawn),420,> 501
Clc1ccc(CSc2cnn[nH]2)s1,236,267
C=C(C)CSc1nnnn1Cc1ccco1,51.6,55.3
CC(C)N(C)S(=O)(=O)NCCc1cccs1,182,206
COc1cccc(CCN)n1,194,192

SMILES,IC50 [1] [µM],IC50 [2] [µM]
NS(=O)(=O)NCC1CCN(c2cccc(Br)c2)C1 (stereo not drawn),247,230
CN(C)C(=O)CCCn1nnc(-c2ccsc2)n1,89.8,155
CCc1ccc(S(=O)(=O)N2CC[C@@H](N)C2)cc1CC,> 501,> 501
COC(=O)[C@H](C)NC(=O)C1(c2ccccc2F)CC1,187,> 501
CC(C)N(CCS(=O)(=O)c1ccccc1)CC(N)=O,435,> 501
CC(=O)c1ccc(NCC(=O)NC(C)C(C)C)cc1 (stereo not drawn),182,182
COC(=O)[C@H](C)NC(=O)c1noc2c1CCCCC2,238,> 501
OCC(Nc1ncccc1Br)c1ccccc1 (stereo not drawn),184,327
CCN1CCN(C(=O)C2CCCOC2)c2ccccc21 (stereo not drawn),158,276
OC(CN1CCn2ccnc2C1)c1ccc(Cl)cc1 (stereo not drawn),186,> 501
CCc1cccc2c1N(C(=O)[C@@H](N)CC)CC2,244,> 501
N#CCc1ccc(CN)cc1,182,135
CC(C)(C#N)C(=O)NCCNc1cccc(Br)c1,267,206
CCOc1cc(NCc2ncc(C)o2)ncn1,153,> 501
CCN1CCN(C(C)CNC(=O)Cn2cnnn2)CC1 (stereo not drawn),> 501,> 501
CC(C)c1cc(N)[nH]n1,> 501,> 501
COCC(=O)N1CCC2(CC1)OCCO2,> 501,> 501
CC(C)N(CCOc1cccc(F)c1)CC(N)=O,210,199
OCCNC1CCCC1,> 501,> 501
CC(NC(=O)CNc1cc(F)cc(Br)c1)C(=O)N(C)C (stereo not drawn),289,> 501
COC(=O)CCCC(=O)N1CCCc2ccccc2C1,180,> 501
N#CCCn1ncc2c(NCc3cccs3)ncnc21,399,> 501
CC1CCCN1C1CCN(CCNS(C)(=O)=O)CC1 (stereo not drawn),> 501,> 501
Cc1ccc(C(=O)NCC(=O)NC(C)(C)C)c(O)c1,> 501,> 501
C[C@@]1(O)CCN(C(=O)CN)C[C@@H]1Cc1ccccc1,219,174
